Reference: ChEMBL document CHEMBL1201862, “PubChem BioAssay data set” (2004)
Calls of active or inactive are those of the source.

Key:
[1] = Late stage assay provider results from the probe development effort to identify selective inhibitors of heat shock protein 90 (HSP90): Absorbance-based cell proliferation assay in MCF7 cells.; format: functional
[2] = Late stage assay provider results from the probe development effort to identify selective inhibitors of heat shock protein 90 (HSP90): Absorbance-based cell proliferation assay in SKBR3 cells.; format: functional; details: SK-BR-3
[3] = molecular target: Disintegrin and metalloproteinase domain-containing protein 17 (Homo sapiens, UniProt P78536); test: exosite inhibitors of ADAM17, dose response, biochemical (AID 743260)
[4] = ADAM10 protease inhibitors, dose response, selectivity assay for ADAM17 exosite inhibitor project, biochemical, FRET peptide substrate, recombinant human ADAM10 (AID 743259);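 also: ADAM10 enzyme cleaving a FRET peptide substrate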
[5] = inhibitors of TNFa-stimulated NF-kB luciferase reporter, dose response, selectivity assay for EBV LMP1 NF-kB inhibitor project, HEK293 LMP1 reporter cells, dry powder, set 2 (AID 624369); format: functional
Paired box protein Pax-8 = Paired box protein Pax-8 (Homo sapiens, UniProt Q06710); test: inhibitors of PAX8-driven TPO luciferase reporter, dose response, RMG-I cells, cherry-pick (AID 687027); format: functional, cell-based;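 also: luciferase reporter driven by Pax8 target thyroperoxidase promoter measured by SteadyGlo luminescence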
Paired box protein Pax-8, sequence (Q06710 whole entry): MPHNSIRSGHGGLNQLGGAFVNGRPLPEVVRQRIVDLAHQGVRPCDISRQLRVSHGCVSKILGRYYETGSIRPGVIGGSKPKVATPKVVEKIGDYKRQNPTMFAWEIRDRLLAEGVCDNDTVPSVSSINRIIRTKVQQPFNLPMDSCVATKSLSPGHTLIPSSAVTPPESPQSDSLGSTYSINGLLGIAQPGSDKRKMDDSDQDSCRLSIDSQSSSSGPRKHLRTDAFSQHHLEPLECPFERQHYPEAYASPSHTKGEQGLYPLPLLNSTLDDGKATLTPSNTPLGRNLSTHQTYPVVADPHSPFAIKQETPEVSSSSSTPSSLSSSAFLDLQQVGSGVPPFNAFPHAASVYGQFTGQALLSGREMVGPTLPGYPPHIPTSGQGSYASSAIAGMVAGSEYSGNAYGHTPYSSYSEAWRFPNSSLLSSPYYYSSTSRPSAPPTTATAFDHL

[6] = inhibitors of CMV-promoter luciferase reporter, dose response, counter-screen for Pax8 inhibitor project, cell-based, HEK293, luminescence, dry powder (AID 743020); format: functional
[7] = NIH:OVCAR-3 ovarian cancer cell cytotoxicity, dose response, PAX8 inhibitor project, plate reader, dry powder samples (AID 743044); format: functional, cell-based
[8] = A Cell-Based Confirmatory Screen for Compounds that Inhibit VEEV, TC-83 (8).; format: functional
[9] = NIH/3T3 fibroblast cytotoxicity, dose response, cytotoxicity control for T. cruzi growth inhibitor project, cell-based, cherry-pick samples, set 2 (AID 651817); format: functional; details: NIH3T3
[10] = molecular target: T1, High affinity choline transporter 1 (Homo sapiens, UniProt Q9GZV3); test: CHT inhibitors, dose response, cell-based, 5-point CRC, membrane potential dye (AID 504840); format: functional
T1 sequence (Q9GZV3 whole entry): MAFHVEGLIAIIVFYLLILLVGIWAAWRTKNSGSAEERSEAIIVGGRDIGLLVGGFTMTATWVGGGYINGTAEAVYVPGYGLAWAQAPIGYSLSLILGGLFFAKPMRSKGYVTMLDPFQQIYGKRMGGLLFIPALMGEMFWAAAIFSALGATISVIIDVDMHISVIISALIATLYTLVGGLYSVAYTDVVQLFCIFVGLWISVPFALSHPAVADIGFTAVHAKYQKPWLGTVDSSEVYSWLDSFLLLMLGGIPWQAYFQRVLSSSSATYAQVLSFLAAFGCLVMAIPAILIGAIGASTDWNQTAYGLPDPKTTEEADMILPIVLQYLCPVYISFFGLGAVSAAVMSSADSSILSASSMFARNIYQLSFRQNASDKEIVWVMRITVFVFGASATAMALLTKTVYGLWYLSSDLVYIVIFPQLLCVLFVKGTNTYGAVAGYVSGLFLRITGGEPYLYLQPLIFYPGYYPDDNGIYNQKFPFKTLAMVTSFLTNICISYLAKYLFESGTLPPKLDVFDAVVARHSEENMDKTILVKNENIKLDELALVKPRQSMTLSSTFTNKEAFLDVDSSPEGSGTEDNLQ

[11] = HeLa cell cytotoxicity, dose response, cytotoxicity control for MgcRacGAP inhibitor project (AID 624300); format: functional
Large T antigen = Large T antigen (Simian virus 40, UniProt P03070); format: functional, Betapolyomavirus macacae;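 also: Confirmatory-stage PubChem screen for compounds that inhibit SV40 T antigen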
Large T antigen, sequence (P03070 whole entry): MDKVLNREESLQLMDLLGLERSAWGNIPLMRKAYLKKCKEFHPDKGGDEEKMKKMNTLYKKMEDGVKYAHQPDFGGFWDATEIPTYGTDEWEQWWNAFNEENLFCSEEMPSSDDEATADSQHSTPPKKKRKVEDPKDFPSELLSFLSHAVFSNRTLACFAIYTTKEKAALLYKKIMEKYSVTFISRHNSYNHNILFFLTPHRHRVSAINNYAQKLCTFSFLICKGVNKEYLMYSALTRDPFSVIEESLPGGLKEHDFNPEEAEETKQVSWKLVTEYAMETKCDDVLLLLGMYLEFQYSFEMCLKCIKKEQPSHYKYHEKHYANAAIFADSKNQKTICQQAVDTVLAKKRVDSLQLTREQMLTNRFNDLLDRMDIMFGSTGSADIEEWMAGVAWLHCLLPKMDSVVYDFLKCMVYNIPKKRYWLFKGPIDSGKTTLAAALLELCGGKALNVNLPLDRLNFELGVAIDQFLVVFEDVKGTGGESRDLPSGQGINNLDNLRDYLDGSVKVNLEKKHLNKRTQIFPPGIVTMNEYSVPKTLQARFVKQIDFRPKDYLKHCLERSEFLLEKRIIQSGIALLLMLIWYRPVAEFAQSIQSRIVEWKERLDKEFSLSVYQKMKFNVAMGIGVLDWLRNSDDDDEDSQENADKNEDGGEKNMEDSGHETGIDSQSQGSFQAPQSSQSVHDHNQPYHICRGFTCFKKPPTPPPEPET

[12] = molecular target: T2, Rac GTPase-activating protein 1 (Homo sapiens, UniProt Q9H0H5); test: MgcRacGAP GTPase-activating activity inhibitors, confirmation, biochemical, ADP Hunter fluorescence, primary and confirmatory (AID 624330); format: functional
T2 sequence (Q9H0H5 whole entry): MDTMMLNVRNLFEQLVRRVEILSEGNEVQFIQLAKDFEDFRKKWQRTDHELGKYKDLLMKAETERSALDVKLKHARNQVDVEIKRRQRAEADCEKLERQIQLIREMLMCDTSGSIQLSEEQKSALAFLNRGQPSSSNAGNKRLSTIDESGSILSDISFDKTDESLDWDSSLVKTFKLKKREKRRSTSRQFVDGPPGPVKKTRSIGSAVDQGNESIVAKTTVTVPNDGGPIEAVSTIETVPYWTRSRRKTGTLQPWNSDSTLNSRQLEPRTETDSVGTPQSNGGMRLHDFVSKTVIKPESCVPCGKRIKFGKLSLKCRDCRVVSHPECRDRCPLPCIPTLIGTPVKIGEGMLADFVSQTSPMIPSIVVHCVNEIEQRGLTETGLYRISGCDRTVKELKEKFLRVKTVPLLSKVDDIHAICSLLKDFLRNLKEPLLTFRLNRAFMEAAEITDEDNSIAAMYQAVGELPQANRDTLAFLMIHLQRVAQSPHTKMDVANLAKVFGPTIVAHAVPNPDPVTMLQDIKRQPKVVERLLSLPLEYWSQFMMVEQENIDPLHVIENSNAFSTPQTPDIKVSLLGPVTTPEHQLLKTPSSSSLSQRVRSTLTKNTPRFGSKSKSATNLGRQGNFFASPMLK

[13] = HEK293T cytotoxicity, dose response, cytotoxicity control for miR-122 modulator project, cell-based, inhibitor set, cherry-pick, set 2 (AID 720697); format: functional
[14] = inhibitors of intracellular T. cruzi replication, confirmation, NIH3T3 host cells, beta-gal luminescence (AID 2044); format: functional, cell-based;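 also: intracellular parasites grown in NIH/3T3 mouse fibroblasts as host cells; luminescent beta-galactosidase reporter signal from transgenic T. cruzi replicating inside host cells; inhibitors lower the luminescence signal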
Beta Lactamase = Beta Lactamase (Pseudomonas aeruginosa, UniProt Q932Y6); test: beta-lactamase reporter inhibitor potency, dose response, artefact control for NOD2-RIPK2 interaction inhibitor project, BLA reporter cells, FRET fluorescence (AID 651552); format: functional, cell-based
Beta Lactamase, sequence (Q932Y6 whole entry, the tested form may be a part): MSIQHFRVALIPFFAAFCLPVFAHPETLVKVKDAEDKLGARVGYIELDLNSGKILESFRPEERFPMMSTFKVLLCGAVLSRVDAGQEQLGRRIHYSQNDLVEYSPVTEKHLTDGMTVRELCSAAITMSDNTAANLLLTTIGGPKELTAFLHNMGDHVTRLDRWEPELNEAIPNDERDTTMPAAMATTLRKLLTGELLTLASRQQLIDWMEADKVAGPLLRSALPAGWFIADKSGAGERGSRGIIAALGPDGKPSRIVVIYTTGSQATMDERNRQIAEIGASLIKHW

[15] = Fluorescence-based cell-based high throughput dose response assay for inhibitors of the interaction of nucleotide-binding oligomerization domain containing 2 (NOD2) and the receptor-interacting serine-threonine kinase 2 (RIPK2).; format: functional; details: Homo sapiens
[16] = molecular target: Glucose-6-phosphate 1-dehydrogenase (Homo sapiens, UniProt P11413); test: human G6PD enzyme inhibitors, dose response, selectivity assay for P. falciparum G6PD inhibitor project, biochemical, fluorescence (AID 504792); format: functional
Glucose-6-phosphate 1-dehydrogenase, sequence (P11413 whole entry): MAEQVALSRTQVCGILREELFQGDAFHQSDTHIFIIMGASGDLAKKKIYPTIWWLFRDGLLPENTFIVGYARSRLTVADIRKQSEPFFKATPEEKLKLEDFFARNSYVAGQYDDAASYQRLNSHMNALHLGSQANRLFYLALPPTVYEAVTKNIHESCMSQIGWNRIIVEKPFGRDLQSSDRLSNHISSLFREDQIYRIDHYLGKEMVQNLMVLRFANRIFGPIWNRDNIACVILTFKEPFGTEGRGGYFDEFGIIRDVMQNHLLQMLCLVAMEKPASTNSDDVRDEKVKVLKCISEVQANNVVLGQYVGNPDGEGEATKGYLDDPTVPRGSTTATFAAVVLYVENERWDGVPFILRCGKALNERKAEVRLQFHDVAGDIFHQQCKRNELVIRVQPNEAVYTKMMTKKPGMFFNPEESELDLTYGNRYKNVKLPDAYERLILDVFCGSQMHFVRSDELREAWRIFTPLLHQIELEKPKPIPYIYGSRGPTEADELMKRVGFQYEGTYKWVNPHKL

[17] = molecular target: DNA dC->dU-editing enzyme APOBEC-3G (Homo sapiens, UniProt Q9HC16); test: Dose Response confirmation of small molecule APOBEC3G DNA Deaminase Inhibitors via a fluorescence-based single-stranded DNA deaminase assay. [Related pubchem assays (depositor defined):AID493012, AID493028]; format: functional
DNA dC->dU-editing enzyme APOBEC-3G, sequence (Q9HC16 whole entry): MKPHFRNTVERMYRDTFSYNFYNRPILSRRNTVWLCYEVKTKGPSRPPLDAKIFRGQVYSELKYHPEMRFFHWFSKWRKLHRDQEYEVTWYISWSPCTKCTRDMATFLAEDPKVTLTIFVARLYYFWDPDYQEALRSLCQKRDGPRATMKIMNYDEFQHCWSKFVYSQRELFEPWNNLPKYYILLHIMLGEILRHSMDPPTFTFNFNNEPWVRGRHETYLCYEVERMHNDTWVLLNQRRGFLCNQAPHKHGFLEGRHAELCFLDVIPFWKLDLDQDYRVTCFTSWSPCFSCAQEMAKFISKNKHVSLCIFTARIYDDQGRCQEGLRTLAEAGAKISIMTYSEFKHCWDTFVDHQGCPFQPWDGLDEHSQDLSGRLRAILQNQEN

[18] = molecular target: DNA dC->dU-editing enzyme APOBEC-3A (Homo sapiens, UniProt P31941); test: APOBEC3A DNA deaminase inhibitors, dose response, biochemical (AID 504722); format: functional
DNA dC->dU-editing enzyme APOBEC-3A, sequence (P31941 whole entry): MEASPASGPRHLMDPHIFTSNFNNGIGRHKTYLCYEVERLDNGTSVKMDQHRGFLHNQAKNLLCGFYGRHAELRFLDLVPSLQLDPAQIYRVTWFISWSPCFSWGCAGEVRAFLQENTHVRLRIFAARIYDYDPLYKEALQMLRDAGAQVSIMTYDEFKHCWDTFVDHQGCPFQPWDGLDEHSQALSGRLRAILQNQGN

[19] = cytotoxicity toward NIH3T3 fibroblasts, dose response, counter-screen, cell-based, ATP luminescence, mouse fibroblasts (AID 2010); format: functional;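 also: cells exposed to compound for about 90 hours before reading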
[20] = miR-122 activators in hepatoma reporter cells, dose response, cell-based, Huh7 psiCHECK-miR122, Renilla luciferase, cherry-picked (AID 651956); format: functional;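 also: huh7 hepatoma cells stably carrying a psiCHECK-2 miR-122 sensor plasmid; renilla luciferase signal reporting endogenous miR-122 activity after 48 h compound exposure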
[21] = IGROV1 ovarian cancer cell cytotoxicity, dose response, PAX8 inhibitor project, plate reader, dry powder samples (AID 743043); format: functional, cell-based; details: IGROV-1
[22] = cytotoxicity in OVCAR8 ovarian cancer cells, dose response, PAX8 project, cell-based, plate reader, dry powder samples (AID 743197); format: functional; details: OVCAR-8
[23] = molecular target: Endoplasmic reticulum aminopeptidase 1 (Homo sapiens, UniProt Q9NZ08); test: ERAP1 aminopeptidase inhibitors, dose response, biochemical, cherry-pick, set 2, plate reader (AID 743314)
Endoplasmic reticulum aminopeptidase 1, sequence (Q9NZ08 whole entry): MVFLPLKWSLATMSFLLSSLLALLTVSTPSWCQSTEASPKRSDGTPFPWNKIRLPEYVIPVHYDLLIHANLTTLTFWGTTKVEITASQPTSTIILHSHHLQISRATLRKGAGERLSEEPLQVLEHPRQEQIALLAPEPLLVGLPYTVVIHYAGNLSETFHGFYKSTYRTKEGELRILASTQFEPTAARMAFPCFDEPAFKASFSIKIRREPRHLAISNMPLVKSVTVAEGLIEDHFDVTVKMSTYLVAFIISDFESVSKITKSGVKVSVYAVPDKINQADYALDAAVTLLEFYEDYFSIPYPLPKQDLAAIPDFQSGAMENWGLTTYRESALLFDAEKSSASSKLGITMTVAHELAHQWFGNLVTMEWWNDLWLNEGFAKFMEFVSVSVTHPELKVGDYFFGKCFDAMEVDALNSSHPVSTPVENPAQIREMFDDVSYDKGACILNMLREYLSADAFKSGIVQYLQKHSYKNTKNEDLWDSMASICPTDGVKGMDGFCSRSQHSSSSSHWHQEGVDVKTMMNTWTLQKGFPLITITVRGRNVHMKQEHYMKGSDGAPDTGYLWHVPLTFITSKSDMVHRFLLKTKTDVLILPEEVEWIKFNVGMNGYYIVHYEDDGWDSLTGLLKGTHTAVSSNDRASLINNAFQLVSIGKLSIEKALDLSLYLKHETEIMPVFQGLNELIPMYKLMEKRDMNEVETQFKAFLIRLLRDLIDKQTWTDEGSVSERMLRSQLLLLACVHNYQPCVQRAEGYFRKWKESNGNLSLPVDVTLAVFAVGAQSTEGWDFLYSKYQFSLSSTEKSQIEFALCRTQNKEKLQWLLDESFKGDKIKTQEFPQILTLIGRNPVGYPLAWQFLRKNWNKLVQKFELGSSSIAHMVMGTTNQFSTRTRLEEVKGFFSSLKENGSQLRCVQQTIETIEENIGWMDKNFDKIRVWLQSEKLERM

Cytochrome P450 1A2 = molecular target: T3, Cytochrome P450 1A2 (Homo sapiens, UniProt P05177);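 also: PubChem cytochrome P450 panel assay, CYP1A2 panel member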
T3 sequence (P05177 whole entry): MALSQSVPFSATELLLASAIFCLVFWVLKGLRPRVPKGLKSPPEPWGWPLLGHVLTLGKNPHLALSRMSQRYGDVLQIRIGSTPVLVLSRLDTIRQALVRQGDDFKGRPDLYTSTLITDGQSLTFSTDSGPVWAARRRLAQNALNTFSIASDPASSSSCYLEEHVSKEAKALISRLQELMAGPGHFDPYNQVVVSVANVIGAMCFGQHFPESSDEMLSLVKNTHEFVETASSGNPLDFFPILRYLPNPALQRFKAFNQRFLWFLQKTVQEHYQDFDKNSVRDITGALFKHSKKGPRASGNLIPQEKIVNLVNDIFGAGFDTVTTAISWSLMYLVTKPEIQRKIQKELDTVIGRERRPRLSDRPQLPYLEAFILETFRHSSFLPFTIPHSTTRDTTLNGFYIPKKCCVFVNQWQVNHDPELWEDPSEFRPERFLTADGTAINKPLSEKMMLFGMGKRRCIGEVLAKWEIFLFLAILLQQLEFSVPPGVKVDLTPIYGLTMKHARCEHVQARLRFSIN

[24] = human group III sPLA2 inhibitors, dose response, biochemical, QFRET, IC50 (AID 743457);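 also: green fluorescence rise as the enzyme cleaves BODIPY PC-A2 in liposomes; potency for inhibition of the enzyme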
Cytochrome P450 2D6 = Cytochrome P450 2D6 (Homo sapiens, UniProt P10635);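 also: CYP2D6 member of a cytochrome P450 panel assay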
Cytochrome P450 2D6, sequence (P10635 whole entry): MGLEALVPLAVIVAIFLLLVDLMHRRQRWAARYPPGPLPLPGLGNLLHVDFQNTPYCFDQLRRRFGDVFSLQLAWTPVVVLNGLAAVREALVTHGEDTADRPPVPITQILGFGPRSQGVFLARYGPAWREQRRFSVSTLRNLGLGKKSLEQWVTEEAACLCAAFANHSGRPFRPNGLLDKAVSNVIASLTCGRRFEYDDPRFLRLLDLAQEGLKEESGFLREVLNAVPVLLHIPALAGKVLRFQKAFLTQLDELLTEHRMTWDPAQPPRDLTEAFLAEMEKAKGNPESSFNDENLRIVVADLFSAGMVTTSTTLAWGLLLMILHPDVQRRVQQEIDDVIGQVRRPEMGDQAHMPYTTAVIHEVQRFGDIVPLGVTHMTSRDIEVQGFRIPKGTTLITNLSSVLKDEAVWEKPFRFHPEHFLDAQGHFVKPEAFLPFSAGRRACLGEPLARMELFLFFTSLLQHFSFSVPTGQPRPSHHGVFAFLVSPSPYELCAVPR

[25] = molecular target: 5-hydroxytryptamine receptor 2A (Mus musculus, UniProt P35363); format: functional, cell-based;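 also: CHO-K1 cells with tagged receptor and beta-arrestin; agonist potency measured as compound-induced activation of the receptor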
5-hydroxytryptamine receptor 2A, sequence (P35363 whole entry): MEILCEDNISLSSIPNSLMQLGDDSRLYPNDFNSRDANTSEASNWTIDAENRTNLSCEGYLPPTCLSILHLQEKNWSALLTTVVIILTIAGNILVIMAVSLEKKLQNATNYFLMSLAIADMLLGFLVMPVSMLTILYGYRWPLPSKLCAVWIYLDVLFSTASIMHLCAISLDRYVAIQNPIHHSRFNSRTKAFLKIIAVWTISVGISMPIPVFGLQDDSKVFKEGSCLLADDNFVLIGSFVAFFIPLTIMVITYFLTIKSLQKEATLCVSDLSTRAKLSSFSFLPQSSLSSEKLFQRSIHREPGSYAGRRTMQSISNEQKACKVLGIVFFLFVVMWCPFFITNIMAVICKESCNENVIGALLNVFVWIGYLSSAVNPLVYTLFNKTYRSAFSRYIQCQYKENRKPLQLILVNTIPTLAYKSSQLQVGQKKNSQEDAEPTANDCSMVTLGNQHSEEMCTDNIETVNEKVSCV

Mu-type opioid receptor = Mu-type opioid receptor (Homo sapiens, UniProt P35372); format: functional, cell-based;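 also: U2OS cells with beta-arrestin recruitment to OPRM1 by beta-gal complementation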
Mu-type opioid receptor, sequence (P35372 whole entry): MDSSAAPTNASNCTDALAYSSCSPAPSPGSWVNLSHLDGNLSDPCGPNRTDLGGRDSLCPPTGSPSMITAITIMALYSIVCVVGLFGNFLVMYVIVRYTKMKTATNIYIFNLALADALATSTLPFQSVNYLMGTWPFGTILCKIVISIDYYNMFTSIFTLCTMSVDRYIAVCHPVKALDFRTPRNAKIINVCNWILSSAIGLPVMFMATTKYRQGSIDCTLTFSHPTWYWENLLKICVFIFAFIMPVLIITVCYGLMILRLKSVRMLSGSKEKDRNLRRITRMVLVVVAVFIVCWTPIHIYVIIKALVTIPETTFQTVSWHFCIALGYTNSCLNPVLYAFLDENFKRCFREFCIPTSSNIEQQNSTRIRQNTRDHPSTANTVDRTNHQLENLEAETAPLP

COC(=O)CCCCOc1ccc2cc(Br)c(=O)oc2c1
IC50 [1]: > 100 µM (inactive)
IC50 [2]: > 100 µM (inactive)

O=C(C[C@H]1C/C=C\CC[C@@H](Cc2ccc(F)cc2)C(=O)O[C@@H](c2ccccc2)CNC1=O)N[C@H](CO)Cc1ccccc1
IC50 [3]: > 69.5 µM (inactive)
IC50 [4]: > 69.5 µM (inactive)

CCCNC(=O)c1cc2c(c(-c3cccc(-c4cccc(F)c4)c3)n1)[C@H](CCO)N([S@@+]([O-])C(C)(C)C)C2
AbsAC35 [5]: 250.06 µM

CS(=O)(=O)Nc1ccc2c(c1)[C@@H]1C[C@H](CC(=O)NCc3ccc(Oc4ccccc4)cc3)O[C@@H](CO)[C@@H]1O2
AC50 (Paired box protein Pax-8): 6.4 µM (active)
AC50 [6]: 39.7 µM (active)
AC50 [7]: 20.7 µM (active)

CCN1CCN(Cc2nc3ccc(C#N)cc3c(=O)n2-c2ccccc2)CC1
IC50 [8]: 1.14 µM (active)

C[C@H]1CN([C@@H](C)CO)C(=O)c2cccc(NC(=O)NC3CCCCC3)c2O[C@H]1CN(C)S(=O)(=O)c1ccc(F)cc1
AC50 [9]: 28.7 µM (active)

COc1cc(/C=C2/C(=O)ON=C2c2ccccc2)ccc1O
IC50 [10]: 9.6 µM (active)
CC50 [11]: 100 µM (active)
IC50 (Large T antigen): 9.98 µM (active)
IC50 [12]: 100 µM (active)

O=C(Nc1ccccc1)N1C[C@@H]2[C@H](c3ccccc31)[C@H](CO)N2Cc1cocn1
AC50 [13]: 9.02 µM (active)

Cc1cc(C)c2c(=O)n(CC(=O)Nc3ccc(Cl)cc3)sc2n1
EC50 [14]: 1.39 µM (active)
IC50 (Beta Lactamase): 23.6 µM (inactive)
IC50 [15]: 9.56 µM (active)
IC50 [16]: 20.7 µM (inactive)
IC50 [17]: 3.35 µM (active)
IC50 [18]: > 100 µM (inactive)
EC50 [19]: > 30 µM (not active)

CCCNC(=O)C[C@H]1CC[C@@H]2[C@@H](COc3ccc(NC(=O)c4ccc(C(F)(F)F)cc4)cc3C(=O)N2C)O1
AC50 [20]: 26.9 µM (active)

C[C@@H]1CN([C@H](C)CO)C(=O)c2cc(NS(=O)(=O)c3ccc(Cl)cc3)ccc2O[C@@H](C)CCCCO[C@H]1CN(C)C(=O)Nc1ccc(C(F)(F)F)cc1
AC50 (Paired box protein Pax-8): 2.86 µM (active)
AC50 [21]: 35.2 µM (active)
AC50 [22]: 29.6 µM (active)
AC50 [7]: 17.9 µM (active)

COc1ccc2c3c([nH]c2c1)[C@H](CO)N(Cc1cc(F)ccc1F)CC31CN(C)C1
AC50 [23]: 6.53 µM (active)

O=C(CSCc1ccccc1Cl)NNC(=S)Nc1ccccc1
AC50 (Cytochrome P450 1A2): 15.8 µM (inconclusive)
IC50 [24]: > 122 µM (inactive)
AC50 (Cytochrome P450 2D6): 14.1 µM (inconclusive)

O=C(CSc1ccc2ccccc2c1)NCCc1ccc(O)c(O)c1
EC50 [25]: 2.67 µM (active)
EC50 (Mu-type opioid receptor): 92.5 µM (inactive)
